Test results taken from US20240092758A1, “IMIDAZOLO INDAZOLE COMPOUNDS AS JAK INHIBITORS” (Theravance Biopharma R&D IP, LLC, priority 2021, published 2024).

What was measured:
[1] = molecular target: JAK2 (Homo sapiens (Human), UniProt O60674); test: Biochemical JAK kinase assay (LanthaScreen), JAK2; settings: for Ki: read-out: JAK2 pKi (converted)
Outline: (§1)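 LanthaScreen format: phospho-STAT1 (pTyr701) detected with 2 nM Tb antibody after 10 mM EDTA quench. Kinase step used Km-level ATP and 200 nM STAT1 peptide, 1 h at ambient after 1 h pre-incubation. Inhibition fitted to IC50, reported as pKi.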

[2] = tested on: IL-13 induced STAT6 phosphorylation in BEAS-2B human lung epithelial cells; test: Cellular JAKI potency assay (BEAS-2B); type: cell-based; settings: BEAS-2B cells; for IC50: Homo sapiens, BEAS-2B, read-out: BEAS2B pIC50 (converted)
Outline: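 BEAS-2B cells were preincubated with compound (0.1% DMSO) in HBSS/HEPES/BSA for 1 h at 37 °C, then stimulated with IL-13 (80 ng/mL before addition) for 30 min. After lysis, pSTAT6 (Tyr641) was quantified by AlphaLISA SureFire; IC50 from a 4-parameter fit of percent inhibition, reported as pIC50.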

[3] = molecular target: TYK2 (Homo sapiens (Human), UniProt P29597); test: Biochemical JAK kinase assay (LanthaScreen), Tyk2; settings: read-out: Tyk2 pKi (converted)
Chain of TYK2 (P29597 whole entry): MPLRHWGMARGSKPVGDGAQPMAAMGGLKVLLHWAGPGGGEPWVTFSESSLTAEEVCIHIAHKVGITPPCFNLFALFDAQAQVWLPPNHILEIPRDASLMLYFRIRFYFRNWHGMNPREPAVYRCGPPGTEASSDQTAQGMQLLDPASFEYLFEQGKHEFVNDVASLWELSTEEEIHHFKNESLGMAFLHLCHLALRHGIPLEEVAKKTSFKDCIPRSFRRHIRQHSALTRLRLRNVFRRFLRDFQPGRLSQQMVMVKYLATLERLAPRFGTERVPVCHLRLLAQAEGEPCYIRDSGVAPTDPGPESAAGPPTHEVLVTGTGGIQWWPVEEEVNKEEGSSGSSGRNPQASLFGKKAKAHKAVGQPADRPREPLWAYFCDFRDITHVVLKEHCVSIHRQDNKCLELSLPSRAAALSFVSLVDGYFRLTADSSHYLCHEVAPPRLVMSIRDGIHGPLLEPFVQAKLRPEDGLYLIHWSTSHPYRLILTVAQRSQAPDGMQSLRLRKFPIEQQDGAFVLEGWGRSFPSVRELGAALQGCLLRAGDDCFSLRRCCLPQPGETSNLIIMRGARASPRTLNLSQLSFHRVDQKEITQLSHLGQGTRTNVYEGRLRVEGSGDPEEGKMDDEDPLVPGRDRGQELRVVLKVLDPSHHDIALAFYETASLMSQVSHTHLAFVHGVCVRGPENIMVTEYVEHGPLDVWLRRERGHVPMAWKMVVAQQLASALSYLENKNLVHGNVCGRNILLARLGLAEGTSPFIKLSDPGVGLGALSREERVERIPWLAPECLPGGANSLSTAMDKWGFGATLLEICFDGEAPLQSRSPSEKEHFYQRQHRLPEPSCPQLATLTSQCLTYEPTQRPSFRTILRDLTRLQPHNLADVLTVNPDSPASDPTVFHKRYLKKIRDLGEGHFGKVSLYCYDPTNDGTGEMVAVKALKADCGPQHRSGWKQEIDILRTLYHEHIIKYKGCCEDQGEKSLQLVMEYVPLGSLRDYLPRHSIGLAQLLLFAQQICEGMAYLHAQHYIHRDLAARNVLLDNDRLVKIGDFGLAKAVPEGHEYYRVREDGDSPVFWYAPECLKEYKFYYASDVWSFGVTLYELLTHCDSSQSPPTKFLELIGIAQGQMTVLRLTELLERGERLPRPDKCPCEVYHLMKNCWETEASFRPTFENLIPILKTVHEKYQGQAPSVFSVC
Outline: as §1

[4] = Pharmacokinetics in plasma and lung in mouse after oral aspiration administration; type: in vivo; settings: male CD1 mice; for Lung Tissue AUC(0-24) / AUC(0-t): 0.2 mg/mL, two 25 μL increments; for Lung Tissue:Plasma AUC ratio: lung AUC to plasma AUC; for AUC(0-t): mouse, inhaled or intranasal, 0.01 mg/mouse, plasma, read-out: Plasma AUC(0-24)
Experimental: Plasma and lung concentrations of test compounds were quantified and pharmacokinetic parameters were calculated in the following manner. Male CD1 mice from Charles River Laboratories were used in the pharmacokinetic studies. Test compounds were individually formulated in 20% propylene glycol in pH 4 citrate buffer at a concentration of 0.2 mg/mL. Test compounds were administered in two, 25 μL increments introduced into the trachea of each mouse by oral aspiration using a calibrated pipette once the animal was anesthetized using isoflurane. Blood samples were collected as terminal collections via cardiac puncture at 0.167, 1, 4, 8, and 24 hr post-dosing. Following […] with CO2, a direct cardiac puncture was performed while avoiding puncturing the lung and blood was immediately transferred into K2EDTA tubes and placed on wet ice. Blood samples were centrifuged (Eppendorf centrifuge, 5804R) for 4 minutes at approximately 12,000 rpm at 4° C. to collect plasma. Intact lungs were also excised from these mice using the same timepoints (0.167, 1, 4, 8, and 24 hr). Lungs were washed with sterile water to remove any blood residue and were patted dry, weighed, and homogenized in 0.1% formic acid in water at a dilution of 1:3 (lung:water, weight/volume). Plasma and lung concentrations of test compounds were determined by LC-MS/MS analysis against analytical standards constructed into a standard curve in the test matrix. The pharmacokinetic parameters of test compounds were determined by non-compartmental analysis. For concentrations below the limit of quantification, zero was used for mean calculations. Mean values were not reported if more than 50% of the samples were below the limit of quantification at a timepoint, or if more than 50% of a calculated pharmacokinetic parameter was not reportable. The area under the concentration-time curve extrapolated to infinity (AUC(0-inf)) was calculated as follows: AUC(0-inf)=AUC(0-t)+Clast/k, where AUC(0-t) is the area under the concentration-time curve from the time of dosing to the last measurable concentration calculated by the linear trapezoidal rule, Clast is the last measurable concentration, and k is the first order rate constant associated with the terminal elimination phase, estimated by linear regression of time versus log concentration. The lung-to-plasma AUC ratio was determined as the ratio of the lung AUC(0-inf) in μg*hr/g to the plasma AUC(0-inf) in μg*hr/mL.

[5] = molecular target: JAK1 (Homo sapiens (Human), UniProt P23458); test: Biochemical JAK kinase assay (LanthaScreen), JAK1; settings: for Ki: read-out: JAK1 pKi (converted)
Chain of JAK1 (P23458 whole entry): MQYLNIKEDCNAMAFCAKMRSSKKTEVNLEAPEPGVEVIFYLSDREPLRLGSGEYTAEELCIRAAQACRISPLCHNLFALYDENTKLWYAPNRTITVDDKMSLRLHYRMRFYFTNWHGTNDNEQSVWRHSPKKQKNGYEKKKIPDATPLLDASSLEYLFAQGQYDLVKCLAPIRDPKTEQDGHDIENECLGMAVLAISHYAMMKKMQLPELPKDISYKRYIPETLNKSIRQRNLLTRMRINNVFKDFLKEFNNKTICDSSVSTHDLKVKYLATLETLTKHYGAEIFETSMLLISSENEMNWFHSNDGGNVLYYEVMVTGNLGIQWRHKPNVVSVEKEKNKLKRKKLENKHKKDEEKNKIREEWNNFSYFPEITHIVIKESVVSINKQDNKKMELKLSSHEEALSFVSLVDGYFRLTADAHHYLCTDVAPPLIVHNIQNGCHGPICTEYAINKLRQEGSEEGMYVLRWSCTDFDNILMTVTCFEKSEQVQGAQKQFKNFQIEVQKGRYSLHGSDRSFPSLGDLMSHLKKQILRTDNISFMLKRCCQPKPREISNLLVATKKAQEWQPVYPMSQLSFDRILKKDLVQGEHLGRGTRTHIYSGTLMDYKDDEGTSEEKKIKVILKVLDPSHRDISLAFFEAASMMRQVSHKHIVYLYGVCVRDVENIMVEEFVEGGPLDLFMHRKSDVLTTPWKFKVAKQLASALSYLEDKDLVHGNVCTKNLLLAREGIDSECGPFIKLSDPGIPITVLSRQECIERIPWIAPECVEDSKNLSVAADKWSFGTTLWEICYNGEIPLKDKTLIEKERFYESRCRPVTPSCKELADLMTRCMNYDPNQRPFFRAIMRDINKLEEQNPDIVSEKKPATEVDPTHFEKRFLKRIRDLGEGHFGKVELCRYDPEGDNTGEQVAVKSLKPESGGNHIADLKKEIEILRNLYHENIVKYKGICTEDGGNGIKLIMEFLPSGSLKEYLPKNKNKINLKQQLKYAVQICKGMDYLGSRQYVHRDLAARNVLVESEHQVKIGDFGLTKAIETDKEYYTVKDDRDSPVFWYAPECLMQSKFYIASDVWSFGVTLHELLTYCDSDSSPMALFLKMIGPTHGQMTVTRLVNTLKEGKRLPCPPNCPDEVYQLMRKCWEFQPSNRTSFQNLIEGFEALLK
Outline: as §1

[6] = molecular target: JAK3 (Homo sapiens (Human), UniProt P52333); test: Biochemical JAK kinase assay (LanthaScreen), JAK3; settings: read-out: JAK3 pKi (converted)
Chain of JAK3 (P52333 whole entry): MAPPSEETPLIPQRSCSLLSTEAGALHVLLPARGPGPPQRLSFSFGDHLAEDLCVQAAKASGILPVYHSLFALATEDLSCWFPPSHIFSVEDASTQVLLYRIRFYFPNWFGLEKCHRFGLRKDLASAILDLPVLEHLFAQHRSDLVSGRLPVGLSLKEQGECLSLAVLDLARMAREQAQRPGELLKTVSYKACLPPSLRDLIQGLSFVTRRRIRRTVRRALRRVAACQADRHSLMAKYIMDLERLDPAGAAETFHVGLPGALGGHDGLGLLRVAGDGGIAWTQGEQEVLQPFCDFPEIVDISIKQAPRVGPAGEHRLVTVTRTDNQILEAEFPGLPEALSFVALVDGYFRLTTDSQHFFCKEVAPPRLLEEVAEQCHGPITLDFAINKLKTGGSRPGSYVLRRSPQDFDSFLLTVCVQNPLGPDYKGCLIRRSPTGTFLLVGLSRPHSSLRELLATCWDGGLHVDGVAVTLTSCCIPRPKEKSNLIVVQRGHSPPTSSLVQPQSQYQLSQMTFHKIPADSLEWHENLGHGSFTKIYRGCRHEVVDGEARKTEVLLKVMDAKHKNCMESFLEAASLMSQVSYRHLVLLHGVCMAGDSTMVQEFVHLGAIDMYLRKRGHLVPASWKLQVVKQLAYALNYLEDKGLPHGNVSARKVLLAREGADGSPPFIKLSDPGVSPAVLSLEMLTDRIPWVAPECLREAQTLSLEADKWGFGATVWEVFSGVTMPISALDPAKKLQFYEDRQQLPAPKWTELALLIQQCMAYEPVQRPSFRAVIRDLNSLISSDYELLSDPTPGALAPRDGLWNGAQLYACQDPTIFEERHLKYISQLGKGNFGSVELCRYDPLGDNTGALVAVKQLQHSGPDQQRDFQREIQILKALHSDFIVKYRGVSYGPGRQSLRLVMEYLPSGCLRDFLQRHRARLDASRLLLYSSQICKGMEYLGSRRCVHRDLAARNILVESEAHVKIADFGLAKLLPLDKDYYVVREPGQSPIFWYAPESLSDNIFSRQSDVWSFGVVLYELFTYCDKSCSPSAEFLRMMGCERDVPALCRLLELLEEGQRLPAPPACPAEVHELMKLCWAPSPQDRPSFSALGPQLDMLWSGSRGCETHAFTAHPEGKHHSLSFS
Outline: as §1

Chain of JAK2 (O60674 whole entry): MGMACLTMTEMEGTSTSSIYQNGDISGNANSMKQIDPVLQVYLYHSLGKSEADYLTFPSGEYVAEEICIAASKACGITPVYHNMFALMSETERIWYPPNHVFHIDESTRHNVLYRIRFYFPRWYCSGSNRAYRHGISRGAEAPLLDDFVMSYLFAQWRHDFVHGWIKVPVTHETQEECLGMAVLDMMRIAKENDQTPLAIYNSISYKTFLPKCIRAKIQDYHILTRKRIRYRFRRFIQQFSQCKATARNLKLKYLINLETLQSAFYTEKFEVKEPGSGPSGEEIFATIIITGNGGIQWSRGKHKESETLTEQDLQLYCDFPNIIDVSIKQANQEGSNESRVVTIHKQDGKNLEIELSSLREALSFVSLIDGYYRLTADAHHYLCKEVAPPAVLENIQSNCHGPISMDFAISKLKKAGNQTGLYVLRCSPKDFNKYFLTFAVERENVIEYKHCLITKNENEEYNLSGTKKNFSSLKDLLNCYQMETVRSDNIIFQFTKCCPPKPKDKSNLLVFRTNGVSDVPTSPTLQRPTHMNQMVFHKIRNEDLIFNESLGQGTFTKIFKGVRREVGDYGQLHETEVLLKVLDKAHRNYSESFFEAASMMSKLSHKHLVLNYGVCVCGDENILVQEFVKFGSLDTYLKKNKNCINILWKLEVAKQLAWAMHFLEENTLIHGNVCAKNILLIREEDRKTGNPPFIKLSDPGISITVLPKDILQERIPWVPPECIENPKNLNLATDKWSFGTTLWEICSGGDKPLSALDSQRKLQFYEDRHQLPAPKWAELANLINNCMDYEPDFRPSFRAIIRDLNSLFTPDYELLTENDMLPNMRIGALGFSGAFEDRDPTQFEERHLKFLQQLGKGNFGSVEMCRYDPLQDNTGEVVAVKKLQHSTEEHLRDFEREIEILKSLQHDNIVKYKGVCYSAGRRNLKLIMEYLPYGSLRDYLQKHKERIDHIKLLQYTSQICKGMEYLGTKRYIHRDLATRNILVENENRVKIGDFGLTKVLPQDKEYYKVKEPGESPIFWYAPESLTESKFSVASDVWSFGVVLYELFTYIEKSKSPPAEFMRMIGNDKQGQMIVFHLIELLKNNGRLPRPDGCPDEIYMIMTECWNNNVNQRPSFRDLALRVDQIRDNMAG

| Compound | Ki [1] [nM] | IC50 [2] [nM] | Ki [3] [nM] | Lung Tissue AUC(0-24) [4] | Lung Tissue:Plasma AUC ratio [4] | AUC(0-t) [4] [ng·h/mL] | Ki [5] [nM] | Ki [6] [nM] | JAK2 pKi [1] | JAK1 pKi [5] | BEAS2B pIC50 [2] |
| --- | --- | --- | --- | --- | --- | --- | --- | --- | --- | --- | --- |
| CCc1cc(O)ccc1-c1ccc2c(-c3nc(C4=CCN(C(C)C)C4)c[nH]3)n[nH]c2c1F [Example 32] | 0.1 to 1 | 3.16 to 10 | 1 to 10 | C (C denotes a value between 9 and 50) | D (D denotes a ratio between 50 and 100) | < 500 | 0.1 to 1 | 0.1 to 1 |  |  |  |
| CCc1cc(O)ccc1-c1ccc2c(-c3nc(C4=CCN(C5CN(C)C5)C4)c[nH]3)n[nH]c2c1F [Example 202] |  | 10 to 31.6 | 1 to 10 | B (B denotes a value between 50 and 100) | D (D denotes a ratio between 50 and 100) | 500 to 1000 | 0.1 to 1 | 0.1 to 1 | A (A represents a pKi value ≥10 (Ki≤0.1 nM)) |  |  |
| CCc1cc(O)ccc1-c1ccc2c(-c3nc(C4=CCN(CCCO)CC4)c[nH]3)n[nH]c2c1F [Compound 14, 3-ethyl-4-(7-fluoro-3-(4-(1-(3-hydroxypropyl)-1,2,3,6-tetrahydropyridin-4-yl)-1H-imidazol-2-yl)-1H-indazol-6-yl)phenol] |  | 10 to 31.6 | 1 to 10 | C (C denotes a value between 9 and 50) | C (C denotes a ratio between 100 and 200) | < 500 | 0.1 to 1 | 0.1 to 1 |  |  |  |
| CCc1cc(O)ccc1-c1ccc2c(-c3nc(C4=C[C@H](COC)NC4)c[nH]3)n[nH]c2c1F [Compound 9, (R)-3-ethyl-4-(7-fluoro-3-(4-(5-(methoxymethyl)-2,5-dihydro-1H-pyrrol-3-yl)-1H-imidazol-2-yl)-1H-indazol-6-yl)phenol] | 0.1 to 1 | 3.16 to 10 | 10 to 100 | C (C denotes a value between 9 and 50) | C (C denotes a ratio between 100 and 200) | < 500 |  | 0.1 to 1 |  | A (A represents a pKi value ≥10 (Ki≤0.1 nM)) |  |
| CCc1cc(O)ccc1-c1ccc2c(-c3nc(C4=CCCN(CCO)C4)c[nH]3)n[nH]c2c1F [Example 44] | 0.1 to 1 | 3.16 to 10 | 1 to 10 | B (B denotes a value between 50 and 100) | D (D denotes a ratio between 50 and 100) | 500 to 1000 | 0.1 to 1 | 0.1 to 1 |  |  |  |
| CCc1cc(O)ccc1-c1ccc2c(-c3nc(C4=CCN(C[C@@H]5COCCN5)CC4)c[nH]3)n[nH]c2c1 [Compound 17, (R)-3-ethyl-4-(3-(4-(1-(morpholin-3-ylmethyl)-1,2,3,6-tetrahydropyridin-4-yl)-1H-imidazol-2-yl)-1H-indazol-6-yl)phenol] | 0.1 to 1 | 3.16 to 10 | 1 to 10 | B (B denotes a value between 50 and 100) | C (C denotes a ratio between 100 and 200) | 500 to 1000 | 0.1 to 1 | 0.1 to 1 |  |  |  |
| CCc1cc(O)ccc1-c1ccc2c(-c3nc(C4=CCCN(C5CCCN(C)C5)C4)c[nH]3)n[nH]c2c1F (centres unmarked) [Example 217] | 0.1 to 1 | 31.6 to 100 | 1 to 10 |  |  |  | 1 to 10 | 0.1 to 1 |  |  |  |
| CCc1cc(O)ccc1-c1ccc2c(-c3nc(C4=CCN(CCO)C4)c[nH]3)n[nH]c2c1 [Example 50] |  | 3.16 to 10 | 0.1 to 1 |  |  |  |  | 0.1 to 1 | A (A represents a pKi value ≥10 (Ki≤0.1 nM)) | A (A represents a pKi value ≥10 (Ki≤0.1 nM)) |  |
| CCc1cc(O)ccc1-c1ccc2c(-c3nc(C4=CCN(C5CCCN(C)C5)CC4)c[nH]3)n[nH]c2c1F (centres unmarked) [Example 212] |  | 10 to 31.6 | 1 to 10 |  |  |  | 0.1 to 1 | 0.1 to 1 | A (A represents a pKi value ≥10 (Ki≤0.1 nM)) |  |  |
| CCc1cc(O)ccc1-c1ccc2c(-c3nc(C4=C[C@H](C)NCC4)c[nH]3)n[nH]c2c1F [Example 299] | 0.1 to 1 | 10 to 31.6 | 0.1 to 1 |  |  |  | 0.1 to 1 | 0.1 to 1 |  |  |  |
| CCc1cc(O)ccc1-c1ccc2c(-c3nc(C4=CCN(C[C@@H]5COCCN5)CC4)c[nH]3)n[nH]c2c1F [Example 189] | 0.1 to 1 | 10 to 31.6 | 1 to 10 |  |  |  | 0.1 to 1 | 0.1 to 1 |  |  |  |
| CCc1cc(O)ccc1-c1ccc2c(-c3nc(C4=CCN([C@H]5CC[C@@H](O)CC5)C4)c[nH]3)n[nH]c2c1F [Example 305] |  |  | 0.1 to 1 |  |  |  | 0.1 to 1 | 0.1 to 1 | A (A represents a pKi value ≥10 (Ki≤0.1 nM)) |  | B (B represents a pIC50 value between 7.5 (included) and 8) |
| CCc1cc(O)ccc1-c1ccc2c(-c3nc(C4=CCCN(C5CCN(C)CC5)C4)c[nH]3)n[nH]c2c1F [Example 194] | 0.1 to 1 | 10 to 31.6 | 1 to 10 |  |  |  | 0.1 to 1 | 0.1 to 1 |  |  |  |
| CCc1cc(O)ccc1-c1ccc2c(-c3nc(C4=CCN(C5COC5)CC4)c[nH]3)n[nH]c2c1 [Example 57] | 0.1 to 1 | 10 to 31.6 | 1 to 10 |  |  |  | 0.1 to 1 | 0.1 to 1 |  |  |  |
| CCc1cc(O)ccc1-c1ccc2c(-c3nc(C4=CCN(CCO)CC4)c[nH]3)n[nH]c2c1F [Example 36] | 0.1 to 1 | 3.16 to 10 | 1 to 10 |  |  |  |  | 0.1 to 1 |  | A (A represents a pKi value ≥10 (Ki≤0.1 nM)) |  |
| CCc1cc(O)ccc1-c1ccc2c(-c3nc(C4=CCN(CC(C)C)CC4)c[nH]3)n[nH]c2c1F [Example 25] | 0.1 to 1 | 10 to 31.6 | 10 to 100 |  |  |  | 0.1 to 1 | 0.1 to 1 |  |  |  |
| CCc1cc(O)ccc1-c1ccc2c(-c3nc(C4=CCN(CCN5CCOCC5)CC4)c[nH]3)n[nH]c2c1F [Example 191] |  | 10 to 31.6 | 1 to 10 |  |  |  |  | 0.1 to 1 | A (A represents a pKi value ≥10 (Ki≤0.1 nM)) | A (A represents a pKi value ≥10 (Ki≤0.1 nM)) |  |
| CCc1cc(O)ccc1-c1ccc2c(-c3nc(C4=CCCN(C[C@@H]5COCCN5)C4)c[nH]3)n[nH]c2c1F [Example 196] | 0.1 to 1 | 31.6 to 100 | 10 to 100 |  |  |  | 1 to 10 | 0.1 to 1 |  |  |  |
